Measured values taken from the supplement of paper PMC10307832.

What was measured:
Experiment in all cases: relative viability (nuclei count vs DMSO), 5 days (fraction); higher = more cells survive
[1] = compound: CC1(COc2ccc3c(c2)ncn3-c2ccc3cccc(N4CCC(N)CC4)c3n2)COC1 [Crenolanib] + CC(=O)c1c(C)c2cnc(Nc3ccc(N4CCNCC4)cn3)nc2n(C2CCCC2)c1=O [Palbociclib] (partner 0.5 µM)
Method in brief: (§1)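 Cells from lung cancer lines were seeded into 1536-well plates and, one day later, dosed by pin tool. Treatments were either a single drug or a fixed dose of an anchor drug with five library-drug doses (not always all listed) in √10 steps. After 5 days, nuclei were stained in a one-step fixation (final 0.05% Triton X-100, 1% formaldehyde, 1 ug/ml Hoechst) and counted on 4× images, and relative viability is the treated-to-vehicle nuclei ratio, as the median of duplicate plates.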

[2] = compound: CC1(COc2ccc3c(c2)ncn3-c2ccc3cccc(N4CCC(N)CC4)c3n2)COC1 [Crenolanib] + CC1(C)CCC(c2ccc(Cl)cc2)=C(CN2CCN(c3ccc(C(=O)NS(=O)(=O)c4ccc(N[C@H](CCN5CCOCC5)CSc5ccccc5)c(S(=O)(=O)C(F)(F)F)c4)cc3)CC2)C1 [Navitoclax] (partner 0.5 µM)
Method in brief: as §1

[3] = compound: O=C1NC(=O)[C@@H](c2cn3c4c(cccc24)CCC3)[C@@H]1c1c[nH]c2ccccc12 [Tivantinib] + C[C@@H](Oc1cc(-c2cnn(C3CCNCC3)c2)cnc1N)c1c(Cl)ccc(F)c1Cl [Crizotinib] (partner 1 µM)
Method in brief: as §1

[4] = compound: O=C1NC(=O)[C@@H](c2cn3c4c(cccc24)CCC3)[C@@H]1c1c[nH]c2ccccc12 [Tivantinib] + C[C@]1(O)C[C@@H](c2nc(-c3ccc4ccc(-c5ccccc5)nc4c3)c3c(N)nccn32)C1 [Linsitinib] (partner 1 µM)
Method in brief: as §1

Row | Cell Line | relative viability ([1]; first compound 0.01 µM) | relative viability ([1]; first compound 0.03162 µM) | relative viability ([1]; first compound 0.1 µM) | relative viability ([1]; first compound 0.3162 µM) | relative viability ([1]; first compound 1 µM) | relative viability ([2]; first compound 0.01 µM) | relative viability ([2]; first compound 0.03162 µM) | relative viability ([2]; first compound 0.1 µM) | relative viability ([2]; first compound 0.3162 µM) | relative viability ([2]; first compound 1 µM) | relative viability ([3]; first compound 0.01 µM) | relative viability ([3]; first compound 0.03162 µM) | relative viability ([3]; first compound 0.1 µM) | relative viability ([3]; first compound 0.3162 µM) | relative viability ([4]; first compound 0.01 µM) | relative viability ([4]; first compound 0.03162 µM) | relative viability ([4]; first compound 0.1 µM) | relative viability ([4]; first compound 0.3162 µM)
1 | LXF-289 | 0.628 | 0.595 | 0.62 | 0.648 | 0.618 | 0.92 | 0.977 | 0.873 | 1 | 0.929 | 0.792 | 0.819 | 0.777 | 0.827 | 0.982 | 0.971 | 0.906 | 0.927
2 | NCI-H23 | 0.588 | 0.516 | 0.454 | 0.539 | 0.449 | 0.805 | 0.992 | 0.899 | 1.03 | 0.822 | 0.511 | 0.615 | 0.512 | 0.416 | 0.539 | 0.579 | 0.626 | 0.561
3 | NCI-H322M | 0.497 | 0.483 | 0.482 | 0.479 | 0.496 | 1.12 | 1.14 | 1.19 | 1.28 | 1.38 | 0.823 | 0.94 | 0.901 | 1.02 | 0.94 | 0.864 | 0.938 | 0.398
4 | NCI-H441 | 0.261 | 0.236 | 0.217 | 0.262 | 0.242 | 0.487 |  | 0.815 | 0.639 | 0.683 | 0.847 | 0.725 | 0.546 | 0.801 | 0.383 | 0.508 | 0.563 | 0.463
5 | NCI-H460 | 0.165 | 0.163 | 0.0988 | 0.15 | 0.145 | 1.24 | 1.4 | 0.932 | 1.15 | 1.15 | 0.878 | 0.884 | 0.848 | 0.217 | 0.833 | 0.637 | 0.746 | 0.683
6 | NCI-H520 | 0.252 | 0.214 | 0.289 | 0.267 | 0.309 | 0.962 | 1.13 | 1.01 | 1.15 | 1.01 | 0.797 | 0.764 | 0.758 | 1.05 | 1.13 | 1.11 | 0.812 | 0.91
7 | NCI-H647 | 0.401 | 0.341 | 0.434 | 0.363 | 0.51 | 1.13 | 1.22 | 0.967 | 1.11 | 0.98 | 1.18 | 1.07 | 1.03 | 0.995 | 1.15 | 1.19 | 1.12 | 1.19
8 | NCI-H727 | 0.72 | 0.676 | 0.678 | 0.646 | 0.699 | 0.57 | 0.414 | 0.462 | 0.467 | 0.362 | 0.764 | 0.96 | 0.88 |  | 0.293 | 0.253 | 0.243 | 
9 | NCI-H838 | 0.244 | 0.232 | 0.21 | 0.232 | 0.205 | 1.19 | 1.16 | 1.21 | 1.2 | 1.02 | 0.831 | 0.924 | 0.886 | 0.963 | 1.01 | 1.04 | 0.975 | 0.984
10 | NCI-H1355 | 0.405 | 0.457 | 0.4 | 0.472 | 0.351 | 1.08 | 0.897 | 0.999 | 1.22 | 0.825 | 1.15 | 1.1 | 1.01 | 0.806 | 0.726 | 0.801 | 0.725 | 0.779
11 | NCI-H1437 | 0.33 | 0.322 | 0.301 | 0.293 | 0.332 | 1.1 | 1.11 | 1.15 | 1.18 | 1.11 | 0.875 | 1.07 | 0.977 | 0.91 | 1.06 | 1.04 | 0.958 | 1.04
12 | NCI-H1651 | 0.531 | 0.518 | 0.516 | 0.522 | 0.495 | 1.1 | 1.07 | 0.935 | 1.23 | 1.03 | 0.893 | 0.828 | 0.867 | 0.762 | 0.937 | 1.01 | 1.04 | 0.814
13 | NCI-H1666 | 0.657 | 0.678 | 0.594 | 0.63 | 0.694 | 1.07 | 0.998 | 0.872 | 1.19 | 0.971 | 0.955 | 1.03 | 0.993 | 0.992 | 0.699 | 0.807 | 0.741 | 0.735
14 | NCI-H1734 | 0.515 | 0.369 | 0.372 | 0.338 | 0.376 | 0.846 | 0.778 | 0.796 | 0.952 | 0.886 | 0.685 | 0.73 | 0.586 | 0.569 | 0.937 | 0.846 | 0.839 | 0.85
15 | NCI-H1755 | 0.466 | 0.443 | 0.46 | 0.454 | 0.473 | 0.974 | 1.02 | 0.998 | 1.01 | 0.993 | 0.892 | 0.878 | 0.793 | 0.92 | 0.975 | 0.97 | 0.916 | 1.01
16 | NCI-H1792 | 0.68 | 0.683 | 0.648 | 0.687 | 0.677 | 0.656 | 0.408 | 0.579 | 0.673 | 0.642 | 1.02 | 0.948 | 0.828 | 0.932 | 0.596 | 0.431 | 0.512 | 0.323
17 | NCI-H1915 | 0.513 | 0.57 | 0.507 | 0.522 | 0.389 | 0.792 | 0.769 | 0.786 | 0.828 | 0.831 | 0.868 | 0.888 | 0.852 | 0.91 | 1.1 | 1.14 | 1.12 | 1.08
18 | NCI-H1944 | 0.356 | 0.315 | 0.335 | 0.324 | 0.3 | 0.987 | 1.03 | 1.04 | 1.13 | 1.03 | 1.01 | 1.01 | 1.03 | 0.64 | 1.07 | 1.06 | 1.01 | 0.583
19 | NCI-H1975 | 0.623 | 0.575 | 0.498 | 0.568 | 0.555 | 1.18 | 1.02 | 0.954 | 1.17 | 1.24 | 0.938 | 0.929 | 0.924 | 1.05 | 0.875 | 0.919 | 0.938 | 0.598
20 | NCI-H1993 | 0.596 | 0.704 | 0.621 | 0.688 | 0.579 | 0.994 | 0.92 | 0.825 | 0.897 | 0.884 | 0.931 | 0.929 | 0.899 | 0.765 | 0.742 | 0.863 | 0.734 | 0.721
21 | NCI-H2009 | 0.219 | 0.22 | 0.251 | 0.186 | 0.19 | 1.2 | 1.17 | 1.13 | 1.24 | 1.01 | 1.05 | 1.07 | 1.06 | 0.98 | 1.16 | 1.19 | 1.15 | 1.17
22 | NCI-H2023 | 0.358 | 0.373 | 0.386 | 0.434 | 0.335 | 1.02 | 0.996 | 0.977 | 1.09 | 0.956 | 0.602 | 0.762 | 0.673 | 0.639 | 0.657 | 0.737 | 0.575 | 0.461
23 | NCI-H2085 |  | 0.46 | 0.475 | 0.512 | 0.485 | 1.08 | 1.12 | 1.09 | 1.24 | 1.17 | 0.909 | 0.76 | 0.75 | 0.756 | 0.877 | 1.07 | 0.986 | 0.879
24 | NCI-H2087 | 0.248 | 0.249 | 0.233 | 0.211 | 0.318 | 1.02 | 0.9 | 0.867 | 1.06 | 1.12 | 0.987 | 0.913 | 0.856 | 1.01 | 0.962 | 0.795 | 0.951 | 0.944
25 | NCI-H2126 | 0.343 | 0.352 | 0.335 | 0.352 | 0.372 | 0.891 | 0.888 | 0.831 | 0.916 | 0.934 | 1.02 | 1.01 | 0.983 | 1.03 | 0.713 | 0.677 | 0.671 | 0.578
26 | NCI-H2228 | 0.758 | 0.866 | 0.629 | 0.92 | 0.815 | 0.796 | 0.62 | 0.764 | 1.24 | 1.3 | 0.449 | 0.481 | 0.427 | 0.337 | 0.639 | 0.538 | 0.519 | 0.627
27 | NCI-H2347 | 0.458 | 0.453 | 0.395 | 0.435 | 0.481 | 0.835 | 0.815 | 0.478 | 0.885 | 0.865 | 0.756 | 0.564 | 0.74 | 0.674 | 0.996 | 0.843 | 1.02 | 1.01
28 | NCI-H2405 | 0.584 |  | 0.39 | 0.541 | 0.539 | 1.34 | 0.917 | 0.441 | 0.765 | 0.806 | 0.892 | 0.879 | 0.821 | 0.821 | 1.16 | 1.02 | 0.941 | 0.739
29 | NCI-H3122 | 0.177 | 0.193 | 0.196 | 0.196 | 0.206 | 0.987 | 1 | 0.985 | 1.04 | 1 | 0.271 | 0.275 | 0.252 | 0.272 | 0.939 | 0.946 | 0.973 | 0.968
